Results reported in patent US20230302084A1, “METHODS AND COMPOSITIONS FOR TREATING PERIODONTAL DISEASE” (priority 2020, published 2023).

Tests used:
[1] = tested on: TIGK cells; assay: LDH assay (BAR, BAR-EFs); type: cell-based
Experimental: (§1) Telomerase immortalized gingival keratinocytes (TIGKs) were grown on 12-well collagen-coated plates (Becton Dickinson, Bedford, MA) and cultured using DermaLife K Calcium Free Medium (LifeFactors®) supplemented with penicillin/streptomycin (100 U/mL final concentration; St. Louis, MO), insulin (5 μg/mL), recombinant human (rh), L-glutamine (6 mM), apo-transferrin (5 μg/mL), epinephrine (1 μM), rh TGF-α (0.5 ng/mL), extract P™, calcium chloride (0.06 mM) and hydrocortisone hemisuccinate (100 ng/mL). The cells were incubated at 37° C. in the presence of 5% CO2 for 6 days until they reached 95% confluence.
LDH Assay: Cell membrane leakage was measured by assessing the release of lactate dehydrogenase (LDH). Extracellular LDH was quantified using a CytoTox96® non-radioactive cytotoxicity assay (Promega, Madison WI) as described by the manufacturer. TIGK cells were plated at density of 6×10^4 cells in 1 mL media per well in a 12-well flat bottom plate, and incubated at 37° C., 5% CO2 for 24 hr. BAR or 10:90 PLGA-PEO BAR-EFs (1.3 or 3.4 μM) were added to cells in triplicate for 24 hr at 37° C. in 5% CO2. Fifty microliters of supernatant from free BAR and BAR-EF-treated (1.3 and 3.4 μM) cells were added to the LDH substrate and incubated at room temperature for 30 min. […] LDH activity was determined by measuring the optical density of the solution at 490 nm. […]

[2] = tested on: TIGK cells; assay: LDH assay (BAR NPs); type: cell-based; conditions: staurosporine, vs control or treated cells
Experimental: Cell membrane leakage was measured by the release of lactate dehydrogenase (LDH). Extracellular LDH was quantified using a CytoTox96® non-radioactive cytotoxicity assay (Promega, Madison WI) as described by the manufacturer. TIGK cells were plated at density of 6×10^4 cells in 1 mL media per well in a 12-well flat bottom plate, and incubated at 37° C., 5% CO2 for 24 hr. CafA-modified BAR NPs or unmodified BAR NPs (1.3 or 3.4 μM) were added to cells in triplicate for 24 hr at 37° C. in 5% CO2. Fifty microliters of supernatant from CafA-modified BAR NP- and unmodified BAR NP-treated (1.3 and 3.4 μM) cells were added to the LDH substrate and incubated at room temperature for 30 min. The reactions were subsequently terminated by adding 50 μL of stop solution. LDH activity was determined by measuring the optical density of the solution at 490 nm. Cells treated with staurosporine or with medium-only served as positive and negative controls for cell death, respectively.

[3] = tested on: TIGK cells; assay: ATP assay (BAR, BAR-EFs); type: cell-based
Experimental: as §1
ATP Assay: The metabolic activity of TIGK cells was assessed by measuring total ATP levels using the CellTiter-Glo reagent (Promega, Madison WI), as described by the manufacturer. TIGK cells were seeded at a density of 6×10^4 cells in 1 mL media per well and incubated at 37° C., 5% CO2 for 24 hr in a 12-well flat bottom plate. Cells were then incubated with BAR or 10:90 PLGA-PEO BAR-EFs (1.3 or 3.4 μM) for 24 hr at 37° C. in 5% CO2. Cells were then lysed with 500 μL of 0.1% Triton X-100 for 30 min at 37° C. The lysates were collected and centrifuged at 1,000×g for 10 min at 4° C., and 50 μL of supernatant was mixed with 50 μL of CellTiter-Glo reagent. […] Total luminescence was measured with a Victor 3 luminometer (Perkin-Elmer, Inc). […]

[4] = tested on: TIGK cells; assay: ATP assay (BAR NPs); type: cell-based; conditions: 1 ng staurosporine, vs untreated and NP-treated cells
Experimental: Total ATP levels in cell culture were assessed by using the CellTiter-Glo reagent (Promega, Madison WI), as described by the manufacturer. TIGK cells were seeded at a density of 6×10^4 cells in 1 mL media per well and incubated at 37° C., 5% CO2 for 24 hr in a 12-well flat bottom plate. Cells were then incubated with CafA-modified BAR-NPs or unmodified BAR-NPs (1.3 or 3.4 μM) for 24 hr at 37° C. in 5% CO2. Cells were then lysed with 500 μL of 0.1% Triton X-100 for 30 min at 37° C. The lysates were collected and centrifuged at 1,000×g for 10 min at 4° C., and 50 μL of supernatant was mixed with 50 μL of CellTiter-Glo reagent. Samples were incubated at ambient temperature for 10 min in a black 96-well plate in the dark. Total luminescence was measured with a Victor 3 luminometer (Perkin-Elmer, Inc). Cells incubated with 1 ng of staurosporine or with medium-only served as positive and negative controls for cell death, respectively.

[5] = tested on: P. gingivalis adherence to S. gordonii; conditions: 3.0 μM
Experimental: P. gingivalis (ATCC 33277) was grown in Trypticase soy broth (Difco Laboratories Inc., Livonia, MI, USA) supplemented with 0.5% (w/v) yeast extract, 1 μg/mL menadione, and 5 μg/mL hemin. The medium was reduced for 24 hr under anaerobic conditions (10% CO2, 10% H2, and 80% N2) and P. gingivalis was subsequently inoculated and grown anaerobically for 48 hr at 37° C. S. gordonii DL-1 was cultured aerobically without shaking in brain-heart infusion broth (Difco Laboratories Inc.) supplemented with 1% yeast extract for 16 hr at 37° C.
To assess the effectiveness of BAR-incorporated EFs to prevent the interaction of P. gingivalis with S. gordonii, S. gordonii was harvested from culture and labeled with 20 μL of 5 mg/mL hexidium iodide for 15 min at room temperature. Following incubation, cells were centrifuged to remove unbound fluorescent dye. The bacterial concentration was subsequently measured by the OD (600 nm) from twenty-fold diluted cultures of S. gordonii. […]
Plates containing P. gingivalis and S. gordonii were subsequently incubated for 24 hr at 37° C. in anaerobic conditions. […] Images were analyzed with Volocity image analysis software (version 6.3; Perkin Elmer, Waltham, MA, USA) to determine the ratio of green to red fluorescence (GR), representing P. gingivalis and S. gordonii, respectively. Control samples were used to subtract background levels of auto-fluorescence. […]

[6] = tested on: TIGK cells; assay: Oxidative DNA damage (AP sites); type: cell-based; conditions: 1.3 or 3.4 μM, 24 hr
Experimental: as §1
Oxidative DNA Damage: Free radicals and other reactive species are generated from cells under stress and cause oxidative damage to biomolecules. DNA is the most targeted site of oxidative attack. […] OxiSelect™ Oxidative DNA Damage Quantitation Kit (Cell Biolabs, INC., San Diego, CA, USA) was used to quantify AP sites in cells treated with free BAR or 10:90 PLGA-PEO BAR-EFs (1.3 or 3.4 μM) as described by the manufacturer. […] AP sites were determined in genomic DNA by using a biotinylated aldehyde reactive probe (ARP) that reacts specifically with an aldehyde group of AP sites, followed by colorimetric detection using a streptavidin-enzyme conjugate (450 nm). The quantity of AP sites in DNA samples was determined by comparing the absorbance with standard curve of known amount of AP sites.

[7] = tested on: P. gingivalis adherence to S. gordonii; conditions: cited from earlier work
[8] = tested on: TIGK cells; assay: MTT assay (BAR, BAR-EFs); type: cell-based; conditions: 1.3 or 3.4 μM, 24 hr, relative to medium-only treated cells
Experimental: as §1
MTT Assay: TIGK cells were seeded in 12-well plates at a density of 6×10^4 cells in 1 mL media per well and incubated for 24 hr to allow for 60-70% confluency and sufficient adhesion. Cells were treated with 1.3 or 3.4 μM of BAR or 10:90 PLGA-PEO BAR-EFs. After 24 hr, 100 μL of MTT solution was added to the media of all samples. After 4 hr incubation at 37° C., 550 μL of lysis buffer was added to the media of each well and plates were incubated for overnight. The absorbance of each well was read at 570 nm, and the sample absorbance was normalized to the absorbance of medium-only treated cells. Cells were treated with 10% DMSO media (100 μL DMSO in 900 μL media) as a positive control for cell death.

[9] = tested on: sheep erythrocytes; conditions: 1.3, 3.4 μM, 3 hr, relative to H2O-treated cells
Experimental: Hemolytic Assay: A sample of 250 μL of 1% sheep erythrocytes (Rockland Inc, Pennsylvania, USA) was suspended in sterile PBS. […] Water replaced PBS as a positive control for cell hemolysis. The suspension was incubated at 37° C. for 3 hr then centrifuged at 3,500×g. Hemoglobin released due to cell lysis was analyzed by measuring the absorbance at 541 nm.

[10] = tested on: pre-established P. gingivalis-S. gordonii biofilms; assay: Biofilm disruption assay; type: cell-based, P. gingivalis (ATCC 33277) / S. gordonii DL-1; conditions: 3.0 μM, 3 hr on 24 hr biofilms
Experimental: The resulting P. gingivalis S. gordonii biofilms were then treated for the maximum duration observed for free BAR to disrupt existing biofilms (3 hr). Established biofilms were administered BAR-EFs, free BAR or blank EFs at various concentrations in 1 mL PBS, and processed and analyzed as described above. The mean and standard deviation (SD) between samples were determined and the percent disruption of P. gingivalis adherence was calculated with the following formula: GR sample/GR control.

[11] = target: T1, minor fimbriae (Mfal) of P. gingivalis (Porphyromonas gingivalis, UniProt B2RHG1 50-563); assay: cell-based or functional assay
T1 sequence (looked up): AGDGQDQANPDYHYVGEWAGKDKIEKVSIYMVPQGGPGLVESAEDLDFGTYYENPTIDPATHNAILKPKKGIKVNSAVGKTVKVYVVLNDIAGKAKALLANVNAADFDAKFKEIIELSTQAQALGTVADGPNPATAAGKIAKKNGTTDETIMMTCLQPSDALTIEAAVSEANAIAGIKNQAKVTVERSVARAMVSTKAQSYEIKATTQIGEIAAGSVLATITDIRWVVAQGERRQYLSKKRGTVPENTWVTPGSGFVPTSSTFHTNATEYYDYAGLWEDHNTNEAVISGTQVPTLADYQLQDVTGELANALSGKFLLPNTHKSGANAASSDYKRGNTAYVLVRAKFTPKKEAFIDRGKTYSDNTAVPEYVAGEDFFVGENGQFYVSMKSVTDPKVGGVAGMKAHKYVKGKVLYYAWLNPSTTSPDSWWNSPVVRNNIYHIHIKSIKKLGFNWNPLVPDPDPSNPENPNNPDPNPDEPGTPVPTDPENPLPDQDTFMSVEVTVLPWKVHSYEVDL

CN[C@@H]1C[C@H]2O[C@@](C)([C@@H]1OC)n1c3ccccc3c3c4c(c5c6ccccc6n2c5c31)C(=O)NC4 [Staurosporine, staurosporine, reference compound]
LDH released (positive control) ([1]; staurosporine, relative to medium-only, free BAR and BAR-EFs): significantly higher level of LDH | LDH activity released (positive control) [2]: significantly higher | ATP levels (positive control) ([3]; 1 ng staurosporine, vs medium-only, free BAR and BAR-EF treated cells): significantly lower levels of ATP | ATP levels (positive control) [4]: significantly lower levels of ATP

H-LEAAPKKVQDLLKKANITVKGAFQLFS-OH [free BAR, NH2-LEA APK KVQ DLL KKA NIT VKG AFQ LFS-COOH]
Biofilm formation inhibited [5]: 81% | LDH released relative to medium-only treated cells ([1]; 1.3 or 3.4 μM, 24 hr): no change in levels of LDH | ATP levels relative to medium-only treated cells ([3]; 1.3 or 3.4 μM, 24 hr): no decrease in ATP | Number of AP sites relative to medium-only treated cells [6]: no change in the number of AP sites | IC50 ([7]; previously determined, read-out: previously determined IC50 of free BAR): 1.3 µM | maximum effective concentration ([7]; used in in vitro and in vivo studies): 3.4 µM | TIGK cell viability (MTT) [8]: no loss in viability | Hemolytic activity [9]: negligible hemolysis | Biofilm formation disrupted [10]: 66%

B1: BAR (SspB Adherence Region) peptide (peptide)
peptide: LEAAPKKVQDLLKKANITVKGAFQLFS
IC50 of biofilm disruption, BAR-incorporated 10:90 PLGA:PEO EFs [11]: 2 µM | IC50 of inhibition of biofilm formation, BAR-incorporated 10:90 PLGA:PEO EFs [11]: 1.3 µM
